Test results as given in patent US10766869B2, “Triazoles for the treatment of demyelinating dieases” (Vertex Pharmaceuticals Incorporated, priority 2015, dated 2020).
Read-outs that look alike come from different tables or passages of the source.

Tested on: primary rat mixed cortical cells
Experiment: In vitro myelination assay (MBP positive myelin strands, fold myelin pixels above background)
Assay type: cell-based
Details: Rattus norvegicus; for fold induction at 10 µM: 10.0 μM compound; for fold induction at 1 µM: 1.0 μM compound
Summary of the method: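 Mixed cortical culture, P1 rat, 87,500-95,000 cells/well; compound present from seeding, refreshed days 6 and 10; 14 d, 37 °C, 5% CO2. Day 14: PFA fix, anti-MBP + Hoechst. Read-out: fold MBP myelin pixels over untreated, tested at 1.0 and 10.0 μM.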

[1] = relative to baseline of no added compound, read-out: Fold myelin pixels above background
[2] = relative to baseline of no added compound, read-out: Fold myelin pixels above background, 1.0 μM
[3] = relative to baseline of no added compound, read-out: Fold myelin pixels above background, 10.0 μM
[4] = read-out: Fold myelin pixels above background relative to baseline of no added compound

Compound | fold induction at 10 µM [1] | fold induction at 1 µM [1] | fold induction at 1 µM [2] | fold induction at 10 µM [3] | fold induction at 1 µM [4] | fold induction at 10 µM [4]
Cc1cc(Nc2ncn(-c3cc(F)cc(F)c3)n2)cc(N2CC(CO)C2)c1 [Compound 493, [1-[3-[[1-(3,5-difluorophenyl)-1,2,4-triazol-3-yl]amino]-5-methyl-phenyl]azetidin-3-yl]methanol] | ≤ 1 |  |  |  |  | 
Cc1cc(Nc2ncn(-c3cc(F)cc(F)c3)n2)c(F)c(NC2CCOC2)c1 (stereo not drawn) [Compound 765, N3-[1-(3,5-difluorophenyl)-1,2,4-triazol-3-yl]-2-fluoro-5-methyl-N1-tetrahydrofuran-3-yl-benzene-1,3-diamine] | 1 to 10 | 10 to 100 |  |  |  | 
Cc1cc(Nc2ncn(-c3cc(F)cc(F)c3)n2)nc(C2CCNCC2)c1 [Compound 744, N-[1-(3,5-difluorophenyl)-1,2,4-triazol-3-yl]-4-methyl-6-(4-piperidyl)pyridin-2-amine] | ≤ 1 | 1 to 10 |  |  |  | 
Cc1cc(Nc2ncn(-c3cc(F)cc(F)c3)n2)cc(N2CCOC3(CCC3)C2)c1 [Compound 543, 1-(3,5-difluorophenyl)-N-[3-methyl-5-(9-oxa-6-azaspiro[3.5]nonan-6-yl)phenyl]-1,2,4-triazol-3-amine] | 1 to 10 | 1 to 10 |  |  |  | 
Fc1ccc(-n2cnc(Nc3cc(C4=CCOCC4)nc(C4CC4)c3)n2)cc1F [Compound 3, 2-cyclopropyl-N-[1-(3,4-difluorophenyl)-1,2,4-triazol-3-yl]-6-(3,6-dihydro-2H-pyran-4-yl)pyridin-4-amine] |  |  | 100 to 1000 | 1000 to 10000 |  | 
CCC(CN1CCOCC1)Nc1cc(C)cc(Nc2ncn(-c3cc(F)cc(F)c3)n2)c1 (stereo not drawn) [Compound 960, N3-[1-(3,5-difluorophenyl)-1,2,4-triazol-3-yl]-5-methyl-N1-[1-(morpholinomethyl)propyl]benzene-1,3-diamine] |  |  |  |  | 1 to 10 | ≤ 1
Cc1cc(Nc2ncn(-c3ccccc3)n2)cc(N2CCN(C3CCC3)CC2)c1 [Compound 290, N-[3-(4-cyclobutylpiperazin-1-yl)-5-methyl-phenyl]-1-phenyl-1,2,4-triazol-3-amine] |  |  | 1000 to 10000 | 1000 to 10000 |  | 
Cc1cc(Nc2ncn(-c3ccccc3)n2)cc(N2CCNCC2)c1 [Compound 159, N-(3-methyl-5-piperazin-1-yl-phenyl)-1-phenyl-1,2,4-triazol-3-amine] |  |  | 1000 to 10000 | ≤ 1 |  | 
COC1CCCC1Nc1cc(C)cc(Nc2ncn(-c3cc(F)cc(F)c3)n2)c1 (stereo not drawn) [Compound 1065, N3-[1-(3,5-difluorophenyl)-1,2,4-triazol-3-yl]-N1-(2-methoxycyclopentyl)-5-methyl-benzene-1,3-diamine] |  |  |  |  | 10 to 100 | 1 to 10
CC(C)c1cc(Nc2ncn(-c3cc(F)cc(F)c3)n2)cc(N2CCN(C3COC3)CC2)c1 [Compound 359, 1-(3,5-difluorophenyl)-N-[3-isopropyl-5-[4-(oxetan-3-yl)piperazin-1-yl]phenyl]-1,2,4-triazol-3-amine] |  |  | 1000 to 10000 | ≤ 1 |  | 
COC[C@H]1CCCN1c1cc(F)cc(-n2cnc(Nc3cc(C)cc(N4CCN(C5COC5)CC4)c3)n2)c1 [Compound 491, 1-[3-fluoro-5-[(2R)-2-(methoxymethyl)pyrrolidin-1-yl]phenyl]-N-[3-methyl-5-[4-(oxetan-3-yl)piperazin-1-yl]phenyl]-1,2,4-triazol-3-amine] | ≤ 1 | 100 to 1000 |  |  |  | 
FC(F)c1cc(Nc2ncn(-c3cccc(C(F)(F)F)c3)n2)nc(N2CCOCC2)c1 [Compound 867, 4-(difluoromethyl)-6-morpholino-N-[1-[3-(trifluoromethyl)phenyl]-1,2,4-triazol-3-yl]pyridin-2-amine] |  |  |  |  | 10 to 100 | 10 to 100
Cc1cc(Nc2ncn(-c3ccccc3)n2)cc(N2CCC3(CC2)COC3)c1 [Compound 11, N-[3-methyl-5-(2-oxa-7-azaspiro[3.5]nonan-7-yl)phenyl]-1-phenyl-1,2,4-triazol-3-amine] |  |  | 1000 to 10000 | 1000 to 10000 |  | 
Cc1cc(Nc2ncn(-c3cc(F)cc(F)c3)n2)cc(N2CC3CC(C2)O3)c1 [Compound 527, 1-(3,5-difluorophenyl)-N-[3-methyl-5-(6-oxa-3-azabicyclo[3.1.1]heptan-3-yl)phenyl]-1,2,4-triazol-3-amine] | 100 to 1000 | 100 to 1000 |  |  |  | 
C1=C(c2cc(Nc3ncn(-c4ccccc4)n3)cc(N3CCOCC3)c2)COC1 [Compound 465, N-[3-(2,5-dihydrofuran-3-yl)-5-morpholino-phenyl]-1-phenyl-1,2,4-triazol-3-amine] | ≤ 1 | 100 to 1000 |  |  |  | 
Cc1cc(Nc2ncn(-c3cc(F)cc(F)c3)n2)cc(N2CCN(C(CO)CO)CC2)c1 [Compound 79, 2-[4-[3-[[1-(3,5-difluorophenyl)-1,2,4-triazol-3-yl]amino]-5-methyl-phenyl]piperazin-1-yl]propane-1,3-diol] |  |  | 10 to 100 | ≤ 1 |  | 
CC1(N2CCN(c3cc(C(F)F)cc(Nc4ncn(-c5ccc(F)c(F)c5)n4)n3)CC2)COC1 [Compound 849, 4-(difluoromethyl)-N-[1-(3,4-difluorophenyl)-1,2,4-triazol-3-yl]-6-[4-(3-methyloxetan-3-yl)piperazin-1-yl]pyridin-2-amine] |  |  |  |  | 10 to 100 | 10 to 100
Cc1cc(Nc2ncn(-c3ccccc3)n2)cc(C2CCN(C3(CS(=O)(=O)c4ccccc4)COC3)CC2)c1 [Compound 51, N-[3-[1-[3-(benzenesulfonylmethyl)oxetan-3-yl]-4-piperidyl]-5-methyl-phenyl]-1-phenyl-1,2,4-triazol-3-amine] |  |  | 100 to 1000 | 100 to 1000 |  | 
Cc1cc(NC(=O)C2CC2)cc(Nc2ncn(-c3ccccc3)n2)c1 [Compound 1058, N-[3-methyl-5-[(1-phenyl-1,2,4-triazol-3-yl)amino]phenyl]cyclopropanecarboxamide] |  |  |  |  | 10 to 100 | 10 to 100
FC(F)c1cc(Nc2ncn(-c3ccccc3)n2)cc(N2CCOCC2)c1 [Compound 392, N-[3-(difluoromethyl)-5-morpholino-phenyl]-1-phenyl-1,2,4-triazol-3-amine] | 10 to 100 | 100 to 1000 |  |  |  | 
c1ccc(-n2cnc(Nc3cc(N4CCOCC4)nc(N4CCOCC4)c3)n2)cc1 [Compound 319, 2,6-dimorpholino-N-(1-phenyl-1,2,4-triazol-3-yl)pyridin-4-amine] |  |  | 1 to 10 | ≤ 1 |  | 
Cc1cc(Nc2ncn(-c3cc(F)cc(F)c3)n2)cc(N2CCC(CN3CCOCC3)C2)c1 (stereo not drawn) [Compound 983, 1-(3,5-difluorophenyl)-N-[3-methyl-5-[3-(morpholinomethyl)pyrrolidin-1-yl]phenyl]-1,2,4-triazol-3-amine] |  |  |  |  | 1 to 10 | 1 to 10
COC1CCN(C2CCN(c3cc(C)cc(Nc4ncn(-c5cc(F)cc(F)c5)n4)c3)CC2)CC1 [Compound 1068, 1-(3,5-difluorophenyl)-N-[3-[4-(4-methoxy-1-piperidyl)-1-piperidyl]-5-methyl-phenyl]-1,2,4-triazol-3-amine] |  |  |  |  | 10 to 100 | 10 to 100
